Results taken from patent US20100069345A1, “Lanthanide-porphyrin complexes as anti-tumor agents” (priority 2005, published 2010).

How the values were obtained:
[1] = tested on: multi-drug resistant cell line QGY-TR50; test: MTT cell viability assay, QGY-TR50; type: cell-based, human
Description: (§1) Human cervical epitheloid carcinoma cells (HeLa), human hepatocellular carcinoma cells (HepG2 and Hep3B), human breast cancer cells (MCF-7), human coloadenocarcinoma cells (HCT-8), and normal human lung fibroblast cells (CCD-19Lu) were purchased from American Type Culture Collection (ATCC) Rockville, Md., USA. The human hepatocellular cancinoma cells QGY-7703, and the multi-drug resistant cell line QGY-TR50 derived from QGY-7703, were generously provided by Prof. Yong Xie (The Hong Kong University of Science and Technology, Hong Kong PRC). QGY-TR50 cells were isolated and cultured as described (J. Zhou, S. C. Cheng, D. Luo, Y. Xie Biochem. Biophys. Res. Commun. 2001, 280, 1237-1242). Human nasopharyngeal carcinoma cells (SUNE1 and its cisplatin-resistant variant—CNE2) were derived from poorly differentiated NPC in Chinese patients and were generously provided by Dr. S. W. Tsao (The University of Hong Kong, Hong Kong PRC). Cell culture flasks and 96-well microtitre plates were from Nalge Nunc Int. Culture medium, other medium constituents and phosphate buffer saline (PBS) were obtained by Gibco BRL Rockville, Md., USA. Cell Proliferation kit I (MTT) was purchased from Roche. Mannheim, Germany.

[2] = tested on: human hepatocellular carcinoma cells (Hep3B); test: MTT cell viability assay, Hep3B; type: cell-based; details: 37° C., 48 h, mean ± SD
Description: as §1

[3] = tested on: different human liver carcinoma cells; test: Cytotoxicity toward different human liver carcinoma cells; type: cell-based; details: treatment for 48 h
Description: as §1

[4] = Stability by UV-visible in DMSO/Tris buffer; type: physicochemical; details: DMSO/Tris buffer solution (1:9), 24 h, room temperature; complex 1 3 μM, complex 2b 7 μM
Protocol: UV-visible experiments. The absorption spectra of 3 μM of complex 1 in DMSO/Tris buffer solution (1:9) were monitored for 24 h. […] The complex was monitored over 24 h at room temperature and about 23% decrease in the Soret band intensity was recorded without any significant spectral shift in both Soret and Q-bands (FIG. 5). The absorption spectra of 7 μM of complex 2b in DMSO/Tris buffer solution (1:9) were also monitored for 24 h.

[5] = tested on: human cervical epitheloid carcinoma cells (HeLa); test: MTT cell viability assay, HeLa; type: cell-based
Description: as §1

[6] = tested on: normal human lung fibroblast cells (CCD-19Lu); test: MTT cell viability assay, CCD-19Lu; type: cell-based
Description: as §1

PARP = test: Western blotting analysis, PARP; type: cell-based, human; details: HeLa, 2 μM, after the treatment
Protocol: Cells were washed in cold phosphate-buffered saline (PBS) at 4° C. and lysed in a buffer containing 0.05 M Tis.HCl (pH 7.5), 0.25 M NaCl, 0.005 M EDTA, 0.05 M NaF, 1 mM DTT and 1% Triton. Cell lysates were collected and the protein concentration of cell lysates was measured using a Protein detection kit (Bio-Rad). Equal amount of proteins was resolved in a 12% SDS-PAGE gel and transferred onto nitrocellulose membranes. The membrane was blocked with a blocking solution (1×TBS, 0.1% Tween-20 with 5% non-fat dry milk) at room temperature for 1 h, and washed three times with washing buffer (1×TBS, 0.1% Tween-20) for 5 min each. The membrane was then incubated with primary antibody (Caspase 3, Bid, PARP and β-Actin respectively) for overnight at 4° C. The membrane was washed three times with washing buffer for 5 min each before incubation with the corresponding secondary antibody (horse anti-mouse IgG or goat anti-rabbit IgG). Membrane was washed again and signals were detected using an ECL detection kit (Amersham Pharmacia Biotech) followed by the exposure to X-ray films (Fujifilm).
After treatment with complex 1 for different time intervals, the expressions of caspase 3, Bid and PARP were detected by the Western blotting analysis. […] Moreover, treatment with complex 1 leads to a reduction in the level of un-cleaved Bid.

[7] = Stability by UV-visible in presence of reduced glutathione; type: physicochemical; details: 6 mM GSH in DMSO/Tris buffer solution (1:9)
Protocol: Moreover, concomitant band broadening in spectrum of complex 1 was observed after 24 h. No significant spectral shift and formation of new absorption band were observed. […] Comparing with the spectra of complex 1, the decrease in Soret band intensity of complex 2b is less significant. The intensities are only found to decrease in 2% and 19% after 2 h and 24 h, respectively. Also, there is no significant spectral shift and formation of new absorption band were observed (FIG. 8).

LC3 = test: Subcellular distribution of GFP-LC3; type: cell-based, human; details: HeLa transfected with GFP-LC3, 1 μM, 1-4 hours
Protocol: Subcellular Distribution of LC3. HeLa cells were transiently transfected with a plasmid expressing green fluorescent protein-tagged LC3 (GFP-LC3) using GeneJuice (Novagen, USA). After overnight incubation, HeLa cells were treated 1 (1 μM) for 1, 2, 3, and 4 hours respectively. Green fluorescence of GFP-LC3 was examined under the Olympus IX71 microscope (Melville, N.Y.). Images were captured with CCD digital camera RT COLOR, Spot (Diagnostic Instruments, Inc., Melville, N.Y.).
The redistribution of microtubule-associated protein 1 light chain 3 (LC3) was also examined. LC3 is a maker of autophagosomes in mammalian cells which the localization changes from a diffuse cytosolic pattern to a punctuate pattern representing its recruitment to the autophagosomal membrane during the induction of autophagy. HeLa cells were transfected with plasmid encoded a fusion protein of GFP and LC3 (GFP-LC3), so that the cellular trafficking of LC3 can be directly visualized by live fluorescence microscopy.

HeLa cells = test: Confocal microscopy with AO/EB staining; type: cell-based, human; details: complex 1 0.2 μM 20 h, complex 2b 10 μM 16 h
Description: Confocal Microscopic Experiment. By examining cell morphology under scanning confocal microscopy, the type of cell death can be distinguished. Early phase of apoptosis is characterized by the formation of apoptotic bodies when the integrity of the cell membrane is maintained without cell lysis. On the other hand, necrosis is characterized by cell lyses with the leaking out of internal cellular components such as DNA. With ethidium bromide (DNA stain) and acridine orange (cell membrane stain) as staining agents, normal, apoptotic and necrotic cells can be distinguished under laser confocal microscopy (Chan et. al., Inorg. Chem. 2002, 41, 3161-3171).

[8] = IC50 of cisplatin divided by IC50 of complex

IC50 [2]: 780 ± 60 nM
IC50 ratio cisplatin/complex, HeLa [5, 8]: 30.2
IC50 ([5]; MTT, 37° C., 48 h, mean ± SD of three experiments): 470 ± 300 nM
decrease in Soret band intensity, reduced glutathione, 2 h ([7]; 2 h): 7%
decrease in Soret band intensity, reduced glutathione, 24 h ([7]; 24 h): 52%
Substance: [Yb2(OEP)2](μ-OH)2 [Complex 1]
IC50 ratio cisplatin/complex, QGY-TR50 [1, 8]: 60.3
IC50 ([1]; MTT, 37° C., 48 h, mean ± SD): 540 nM
IC50 [3]: 60 to 780 nM
decrease in Soret band intensity [4]: about 23%
IC50 ratio cisplatin/complex, CCD-19Lu [6, 8]: 16.8
IC50 ([6]; MTT, 37° C., 48 h, mean ± SD): 5400 ± 6800 nM
level of cleaved PARP (85 kDa) (PARP): gradual increase
redistribution of GFP-LC3 (LC3): time-dependent increase in punctuated green fluorescence
cell morphology (type of cell death) under confocal microscopy (HeLa cells): both living and apoptotic cells were observed
